# Reference: patent US9695155B2, “Herbicidal substituted pyrimidinyloxy benzene compounds” (E. I. DU PONT DE NEMOURS AND COMPANY, priority 2013, dated 2017)
# Key:
# winter barley = assay: Test D preemergence; type: in vivo, Hordeum vulgare
# How it was run: (§1)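 Solvent/surfactant formulations are sprayed pre (silt loam) or post (1–4 leaf plants, 2–18 cm). Plants stay 7–21 days in controlled conditions before a visual 0–100 score is given.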
# spring barley = assay: Test D preemergence; type: in vivo, Hordeum vulgare
# How it was run: as §1
# wild radish = assay: Test D postemergence; type: in vivo, Raphanus raphanistrum
# How it was run: as §1
# green foxtail = assay: Test D preemergence; type: in vivo, Setaria viridis
# How it was run: as §1
# chamomile = assay: Test D postemergence; type: in vivo, Matricaria inodora
# Source text: (§2) Seeds of plant species selected from bluegrass (annual bluegrass, Poa annua), blackgrass (Alopecurus myosuroides), canarygrass (littleseed canarygrass, Phalaris minor), chickweed (common chickweed, Stellaria media), galium (catchweed bedstraw, Galium aparine), bromegrass, downy (downy bromegrass, Bromus tectorum), field poppy (Papaver rhoeas), field violet (Viola arvensis), green foxtail (Setaria viridis), deadnettle (henbit deadnettle, Lamium amplexicaule), Italian ryegrass (Lolium multiflorum), kochia (Kochia scoparia), lambsquarters (Chenopodium album), oilseed rape (Brassica napus), pigweed (Amaranthus retroflexus), chamomile (scentless chamomile, Matricaria inodora), Russian thistle (Salsola kali), speedwell (bird's-eye speedwell, Veronica persica), spring barley (Hordeum vulgare), spring wheat (Triticum aestivum), wild buckwheat (Polygonum convolvulus), wild mustard (Sinapis arvensis), wild oat (Avena fatua), wild radish (Raphanus raphanistrum), windgrass (Apera spica-venti), winter barley (Hordeum vulgare), and winter wheat (Triticum aestivum) were planted into a silt loam soil and treated preemergence with test chemicals formulated in a non-phytotoxic solvent mixture which included a surfactant.
# (§3) At the same time, these species were planted in pots containing Redi-Earth® planting medium (Scotts Company, 14111 Scottslawn Road, Marysville, Ohio 43041) comprising spaghnum peat moss, vermiculite, wetting agent and starter nutrients and treated with postemergence applications of the test chemicals formulated in the same manner. Plants ranged in height from 2 to 18 cm (1- to 4-leaf stage). Treated plants and controls were maintained in a controlled growth environment for 7 to 21 days after which time all species were compared to controls and visually evaluated. Plant response ratings, summarized in Table D, are based on a scale of 0 to 100 where 0 is no effect and 100 is complete control. A dash (-) response means no test result.
# wild oat = assay: Test D postemergence; type: in vivo, Avena fatua
# Source text: as §2, §3
# bromegrass, downy = assay: Test D preemergence; type: in vivo, Bromus tectorum
# Source text: as §2, §3
# galium = assay: Test D preemergence; type: in vivo, Galium aparine
# Source text: as §2, §3
# canarygrass = assay: Test D preemergence; type: in vivo, Phalaris minor
# How it was run: as §1
# [1] = 31 g ai/ha, scale 0 (no effect) to 100 (complete control)
# [2] = 62 g ai/ha, scale 0 to 100 (0 no effect, 100 complete control)
# [3] = 125 g ai/ha, scale 0 to 100 (0 no effect, 100 complete control)
# [4] = 250 g ai/ha, scale 0 to 100 (0 no effect, 100 complete control)
smiles,measurement,setting,value
"FC(F)(F)c1cnn(-c2ccccc2Oc2ncc(Br)cn2)c1 [Compound 18, 5-bromo-2-[2-[4-(trifluoromethyl)-1H-pyrazol-1-yl]phenoxy]pyrimidine]",plant injury at 16 g/ha,"winter barley; Hordeum vulgare, pre-emergence, 16 g ai/ha, scale 0 (no effect) to 100 (complete control), read-out: Plant response rating, Barley, Winter",0%
same,plant injury at 31 g/ha,"winter barley; Hordeum vulgare, pre-emergence, 31 g ai/ha, scale 0-100, read-out: Plant response rating, Barley, Winter",10%
same,plant injury at 62 g/ha,"winter barley; Hordeum vulgare, pre-emergence, 62 g ai/ha, scale 0-100, read-out: Plant response rating, Barley, Winter",15%
same,plant injury at 125 g/ha,"winter barley; Hordeum vulgare, pre-emergence, 125 g ai/ha, scale 0-100, read-out: Plant response rating, Barley, Winter",15%
same,plant injury at 250 g/ha,"winter barley; Hordeum vulgare, pre-emergence, 250 g ai/ha, scale 0-100, read-out: Plant response rating, Barley, Winter",25%
same,plant injury at 16 g/ha,"spring barley; Hordeum vulgare, pre-emergence, 16 g ai/ha, scale 0 (no effect) to 100 (complete control), read-out: Plant response rating, Barley, Spring",0%
same,plant injury at 31 g/ha,"spring barley; Hordeum vulgare, pre-emergence, 31 g ai/ha, scale 0-100, read-out: Plant response rating, Barley, Spring",5%
same,plant injury at 62 g/ha,"spring barley; Hordeum vulgare, pre-emergence, 62 g ai/ha, scale 0-100, read-out: Plant response rating, Barley, Spring",5%
same,plant injury at 125 g/ha,"spring barley; Hordeum vulgare, pre-emergence, 125 g ai/ha, scale 0-100, read-out: Plant response rating, Barley, Spring",0%
same,plant injury at 250 g/ha,"spring barley; Hordeum vulgare, pre-emergence, 250 g ai/ha, scale 0-100, read-out: Plant response rating, Barley, Spring",30%
same,pest or weed control at 16 g/ha,"wild radish; Raphanus raphanistrum, post-emergence, 16 g ai/ha, scale 0-100, read-out: Plant response rating, Radish, Wild",95%
same,pest or weed control at 31 g/ha,"wild radish; Raphanus raphanistrum, post-emergence, 31 g ai/ha, scale 0 to 100 (0 no effect, 100 complete control), read-out: Plant response rating, Radish, Wild",90%
same,pest or weed control at 62 g/ha,"wild radish; Raphanus raphanistrum, post-emergence, 62 g ai/ha, scale 0 to 100 (0 no effect, 100 complete control), read-out: Plant response rating, Radish, Wild",100%
same,pest or weed control at 125 g/ha,"wild radish; Raphanus raphanistrum, post-emergence, 125 g ai/ha, scale 0 to 100 (0 no effect, 100 complete control), read-out: Plant response rating, Radish, Wild",100%
same,pest or weed control at 250 g/ha,"wild radish; Raphanus raphanistrum, post-emergence, 250 g ai/ha, scale 0 to 100 (0 no effect, 100 complete control), read-out: Plant response rating, Radish, Wild",100%
same,pest or weed control at 16 g/ha,"green foxtail; Setaria viridis, pre-emergence, 16 g ai/ha, scale 0 (no effect) to 100 (complete control), read-out: Plant response rating, Foxtail, Green",5%
same,pest or weed control at 31 g/ha,"green foxtail; Setaria viridis, pre-emergence, 31 g ai/ha, scale 0-100, read-out: Plant response rating, Foxtail, Green",15%
same,pest or weed control at 62 g/ha,"green foxtail; Setaria viridis, pre-emergence, 62 g ai/ha, scale 0-100, read-out: Plant response rating, Foxtail, Green",50%
same,pest or weed control at 125 g/ha,"green foxtail; Setaria viridis, pre-emergence, 125 g ai/ha, scale 0-100, read-out: Plant response rating, Foxtail, Green",95%
same,pest or weed control at 250 g/ha,"green foxtail; Setaria viridis, pre-emergence, 250 g ai/ha, scale 0-100, read-out: Plant response rating, Foxtail, Green",100%
same,pest or weed control at 16 g/ha,"chamomile; Tripleurospermum inodorum, post-emergence, 16 g ai/ha, scale 0-100, read-out: Plant response rating, Chamomile",5%
same,pest or weed control at 31 g/ha,"chamomile; Tripleurospermum inodorum, post-emergence, 31 g ai/ha, scale 0 to 100 (0 no effect, 100 complete control), read-out: Plant response rating, Chamomile",10%
same,pest or weed control at 62 g/ha,"chamomile; Tripleurospermum inodorum, post-emergence, 62 g ai/ha, scale 0 to 100 (0 no effect, 100 complete control), read-out: Plant response rating, Chamomile",5%
same,pest or weed control at 125 g/ha,"chamomile; Tripleurospermum inodorum, post-emergence, 125 g ai/ha, scale 0 to 100 (0 no effect, 100 complete control), read-out: Plant response rating, Chamomile",10%
same,pest or weed control at 250 g/ha,"chamomile; Tripleurospermum inodorum, post-emergence, 250 g ai/ha, scale 0 to 100 (0 no effect, 100 complete control), read-out: Plant response rating, Chamomile",10%
same,pest or weed control at 16 g/ha,"wild oat; Avena fatua, post-emergence, 16 g ai/ha, scale 0-100, read-out: Plant response rating, Oat, Wild",10%
same,pest or weed control at 31 g/ha,"wild oat; Avena fatua, post-emergence, 31 g ai/ha, scale 0 to 100 (0 no effect, 100 complete control), read-out: Plant response rating, Oat, Wild",10%
same,pest or weed control at 62 g/ha,"wild oat; Avena fatua, post-emergence, 62 g ai/ha, scale 0 to 100 (0 no effect, 100 complete control), read-out: Plant response rating, Oat, Wild",15%
same,pest or weed control at 125 g/ha,"wild oat; Avena fatua, post-emergence, 125 g ai/ha, scale 0 to 100 (0 no effect, 100 complete control), read-out: Plant response rating, Oat, Wild",20%
same,pest or weed control at 250 g/ha,"wild oat; Avena fatua, post-emergence, 250 g ai/ha, scale 0 to 100 (0 no effect, 100 complete control), read-out: Plant response rating, Oat, Wild",25%
same,pest or weed control at 16 g/ha,"bromegrass, downy; Bromus tectorum, pre-emergence, 16 g ai/ha, scale 0 (no effect) to 100 (complete control), read-out: Plant response rating, Bromegrass, Downy",0%
same,pest or weed control at 31 g/ha,"bromegrass, downy; Bromus tectorum, pre-emergence, 31 g ai/ha, scale 0-100, read-out: Plant response rating, Bromegrass, Downy",0%
same,pest or weed control at 62 g/ha,"bromegrass, downy; Bromus tectorum, pre-emergence, 62 g ai/ha, scale 0-100, read-out: Plant response rating, Bromegrass, Downy",5%
same,pest or weed control at 125 g/ha,"bromegrass, downy; Bromus tectorum, pre-emergence, 125 g ai/ha, scale 0-100, read-out: Plant response rating, Bromegrass, Downy",10%
same,pest or weed control at 250 g/ha,"bromegrass, downy; Bromus tectorum, pre-emergence, 250 g ai/ha, scale 0-100, read-out: Plant response rating, Bromegrass, Downy",50%
same,pest or weed control at 16 g/ha,"galium; Galium, pre-emergence, 16 g ai/ha, scale 0 (no effect) to 100 (complete control), read-out: Plant response rating, Galium",0%
same,pest or weed control at 31 g/ha,"galium; Galium, pre-emergence, 31 g ai/ha, scale 0-100, read-out: Plant response rating, Galium",15%
same,pest or weed control at 62 g/ha,"galium; Galium, pre-emergence, 62 g ai/ha, scale 0-100, read-out: Plant response rating, Galium",80%
same,pest or weed control at 125 g/ha,"galium; Galium, pre-emergence, 125 g ai/ha, scale 0-100, read-out: Plant response rating, Galium",100%
same,pest or weed control at 250 g/ha,"galium; Galium, pre-emergence, 250 g ai/ha, scale 0-100, read-out: Plant response rating, Galium",100%
same,pest or weed control at 16 g/ha,"canarygrass; Phalaris minor, pre-emergence, 16 g ai/ha, scale 0 (no effect) to 100 (complete control), read-out: Plant response rating, Canarygrass",10%
same,pest or weed control at 31 g/ha,"canarygrass; Phalaris minor, pre-emergence, 31 g ai/ha, scale 0-100, read-out: Plant response rating, Canarygrass",25%
same,pest or weed control at 62 g/ha,"canarygrass; Phalaris minor, pre-emergence, 62 g ai/ha, scale 0-100, read-out: Plant response rating, Canarygrass",65%
same,pest or weed control at 125 g/ha,"canarygrass; Phalaris minor, pre-emergence, 125 g ai/ha, scale 0-100, read-out: Plant response rating, Canarygrass",100%
same,pest or weed control at 250 g/ha,"canarygrass; Phalaris minor, pre-emergence, 250 g ai/ha, scale 0-100, read-out: Plant response rating, Canarygrass",100%
N#Cc1cccc(Oc2ncc(Cl)cn2)c1-n1cc(-n2ccc(C(F)(F)F)n2)cn1 [Compound 284],"Plant response rating, Barley, Winter",winter barley; [1],0
same,"Plant response rating, Barley, Winter","winter barley; 62 g ai/ha, scale 0-100",0
same,"Plant response rating, Barley, Winter","winter barley; 125 g ai/ha, scale 0-100",15
same,"Plant response rating, Barley, Winter","winter barley; 250 g ai/ha, scale 0-100",20
same,"Plant response rating, Barley, Spring",spring barley; [1],10
same,"Plant response rating, Barley, Spring","spring barley; 62 g ai/ha, scale 0-100",15
same,"Plant response rating, Barley, Spring","spring barley; 125 g ai/ha, scale 0-100",25
same,"Plant response rating, Barley, Spring","spring barley; 250 g ai/ha, scale 0-100",35
same,"Plant response rating, Radish, Wild","wild radish; 31 g ai/ha, scale 0-100",75
same,"Plant response rating, Radish, Wild",wild radish; [2],100
same,"Plant response rating, Radish, Wild",wild radish; [3],100
same,"Plant response rating, Radish, Wild",wild radish; [4],100
same,"Plant response rating, Foxtail, Green",green foxtail; [1],10
same,"Plant response rating, Foxtail, Green","green foxtail; 62 g ai/ha, scale 0-100",5
same,"Plant response rating, Foxtail, Green","green foxtail; 125 g ai/ha, scale 0-100",10
same,"Plant response rating, Foxtail, Green","green foxtail; 250 g ai/ha, scale 0-100",80
same,"Plant response rating, Chamomile","chamomile; 31 g ai/ha, scale 0-100",0
same,"Plant response rating, Chamomile",chamomile; [2],0
same,"Plant response rating, Chamomile",chamomile; [3],10
same,"Plant response rating, Chamomile",chamomile; [4],10
same,"Plant response rating, Oat, Wild","wild oat; 31 g ai/ha, scale 0-100",20
same,"Plant response rating, Oat, Wild",wild oat; [2],25
same,"Plant response rating, Oat, Wild",wild oat; [3],25
same,"Plant response rating, Oat, Wild",wild oat; [4],35
same,"Plant response rating, Bromegrass, Downy","bromegrass, downy; [1]",0
same,"Plant response rating, Bromegrass, Downy","bromegrass, downy; 62 g ai/ha, scale 0-100",0
same,"Plant response rating, Bromegrass, Downy","bromegrass, downy; 125 g ai/ha, scale 0-100",0
same,"Plant response rating, Bromegrass, Downy","bromegrass, downy; 250 g ai/ha, scale 0-100",10
same,"Plant response rating, Galium",galium; [1],20
same,"Plant response rating, Galium","galium; 62 g ai/ha, scale 0-100",20
same,"Plant response rating, Galium","galium; 125 g ai/ha, scale 0-100",20
same,"Plant response rating, Galium","galium; 250 g ai/ha, scale 0-100",25
same,"Plant response rating, Canarygrass",canarygrass; [1],30
same,"Plant response rating, Canarygrass","canarygrass; 62 g ai/ha, scale 0-100",25
same,"Plant response rating, Canarygrass","canarygrass; 125 g ai/ha, scale 0-100",35
same,"Plant response rating, Canarygrass","canarygrass; 250 g ai/ha, scale 0-100",60
